Non-standard residues stand in square brackets, D forms with d. Residues, ends and D or L forms follow the SMILES beside them. ξ: configuration not given here. *: point of attachment. ξF = NC(Cc1ccccc1)C(=O)O; Cbz = O=C(OCc1ccccc1)*

The first data set can be described thus: method code SF, from Hansch, C. & Leo, A. (1987). Log P database [Dataset]. Pomona College Medicinal Chemistry Project.
Conditions: not given
Consider `O=Cc1ccc2c(c1)OCO2`, for which the logP turned out to be 1.05.

In turn, `NNC(=O)NN=Cc1ccccc1` registered a logP of 0.81.

The molecule `CC(=O)OC[C@@H](OC(C)=O)[C@@H](OC(C)=O)[C@H](OC(C)=O)[C@H](C=O)OC(C)=O` had a lipophilicity (logP) of 0.63.

As for `CC(=O)Nc1ccc(C(F)(F)F)cc1`, the logP was determined as 2.52.

`O=c1[nH]nnc2ccccc12` registered a logP of 0.83.

Molecule `COc1cccc2c1C(=O)c1c(O)c3c(c(O)c1C2=O)CC(O)(C(=O)CN1CCOCC1)CC3OC1CC(N)C(O)C(C)O1` (stereo not drawn) came in with a lipophilicity (logP) of 0.23.

In turn, `O=C1c2c(O)ccc(O)c2C(=O)c2c(NCCNCCO)ccc(NCCNCCO)c21` gave a logP of 0.07.

For the molecule `COC(=O)C[C@](O)(CCC(C)(C)O)C(=O)O[C@@H]1C(OC)=C[C@]23CCCN2CCc2cc4c(cc2[C@H]13)OCO4`, the logP came out at 0.65.

`C1=CCCCC1`: the logP is 2.86.

In the case of `CCNC(=O)CBr`, the logP amounted to 0.34.

Consider `OC(c1nc2ccccc2[nH]1)C(O)c1nc2ccccc2[nH]1` (stereo not drawn), for which the logP was determined as 1.14.

The molecule `CCCCC1=Nc2ccc(Cl)cc2S(=O)(=O)N1` came in with a logP of 2.52.

As to `CC1=Nc2c(Br)cc(Cl)cc2S(=O)(=O)N1`, the logP worked out at 1.65.

`ClC(Cl)=Nc1ccccc1` came in with a logP of 2.54.

On to `CN(C(=O)CCS(C)=O)c1ccc(S(=O)(=O)N(C)C)cc1` (stereo not drawn), for which the lipophilicity (logP) is -0.67.

The molecule `Cc1ccc(C(N)=O)cc1` showed a logP of 1.18.

With `c1ccc(OCCOc2ccccc2)cc1`, the logP was determined as 3.81.

`Oc1ccnc2cc(C(F)(F)F)ccc12` yielded a logP of 2.05.

Molecule `COC(=O)c1cccc(NC(C)=O)c1` displayed a logP of 1.46.

`CC(=O)Nc1ccc(Cl)c(Cl)c1` showed a logP of 2.96.

`CC(C)(O)C(Cl)(Cl)Cl`: the logP turned out to be 2.03.

Take `CC(=O)OCC(F)(F)F`: the logP came to 1.18.

For the molecule `Cc1ccco1`, the log partition coefficient (logP) is 1.85.

`O=C(COc1ccccc1)N1CCCCC1` yielded a logP of 1.81.

`CCOC(=O)C(=Cc1ccc(F)cc1)C(=O)OCC`: the logP was determined as 3.1.

`CSc1cccc(/N=N/N(C)C)c1` showed a logP of 2.98.

`COC(=O)c1ccc[nH]1` gave a logP of 1.17.

Turning to `CN(C)/N=N/c1cn([C@@H]2O[C@H](CO)[C@@H](O)[C@H]2O)c(=O)[nH]c1=O`, the logP was -1.82.

Molecule `FC(F)F` registered a log partition coefficient (logP) of 0.64.

For the molecule `CCOCCOC(=O)C(C#N)=C(CC)Nc1ccc([N+](=O)[O-])cc1`, the log partition coefficient (logP) was 2.6.

In turn, `CCOC(=O)C(=Cc1ccccc1[N+](=O)[O-])C(=O)OCC` came in with a logP of 2.54.

For the molecule `CCOC(=O)C(=Cc1ccc(Cl)cc1Cl)C(=O)OCC`, the logP amounted to 3.49.

With `CC(C)[C@H](NC(=O)C(Cc1ccccc1)NC(=O)OCc1ccccc1)C(=O)O` (stereo partly drawn) (Cbz-[ξF]-Val-OH), the log partition coefficient (logP) was determined as 2.88.

In the case of `CCC(C)C(=O)Nc1ccc(Cl)c(Cl)c1` (stereo not drawn), the logP was found to be 4.11.

For the molecule `O=P(c1ccccc1)(c1ccccc1)c1ccccc1`, the logP was determined as 2.85.

Take `C(=N\c1ccccc1)/c1ccccc1`: the logP came out at 2.82.

In turn, `CC(=O)N[C@@H]1CC(=O)N(c2ccc(Cl)cc2)C1=O` returned a logP of 0.75.

On to `O=C1CCCN1CCOc1ccc([N+](=O)[O-])cc1`, for which the logP turned out to be 1.33.

As to `O=c1cnn([C@@H]2O[C@H](CO)[C@@H](O)[C@H]2O)c(=O)[nH]1`, the logP is -2.14.

On to `O=[N+]([O-])c1ccccc1C(F)(F)F`, for which the logP came out at 2.58.

Take `COc1cc(O)cc(OC)c1`: the logP was 1.64.

On to `Clc1ccc2[nH]c(CCCCc3nc4cc(Cl)ccc4[nH]3)nc2c1`, for which the logP turned out to be 1.85.

The molecule `CN(C(=O)CC[N+](=O)[O-])c1ccc(S(=O)(=O)N(C)C)cc1` yielded a logP of 0.3.

With `CCc1ccc(OC(C)=O)cc1`, the log partition coefficient (logP) worked out at 2.56.

On to `O=Cc1cccc(C(F)(F)F)c1`, for which the logP stood at 2.47.

With `CC=CC(=O)Nc1ccc(Cl)c(Cl)c1`, the logP turned out to be 3.63.

For `CCOCOCC`, the logP was determined as 0.84.

In turn, `CN(C)c1ccc(C(N)=O)cc1` came in with a logP of 1.14.

Consider `CN(C=O)c1ccc(S(=O)(=O)N(C)C)cc1`, for which the logP turned out to be 0.4.

Regarding `O=c1[nH]nc(Sc2ccccc2)[nH]1`, the logP is 1.46.

Regarding `CN(C)C(=O)COc1ccccc1`, the logP came out at 0.78.

In the case of `CCCCOc1cccc(C=C(C(=O)OCC)C(=O)OCC)c1`, the logP worked out at 4.03.

`N#CN=[N+]([O-])c1cccc(F)c1` yielded a log partition coefficient (logP) of 1.85.

In turn, `CCOC(=O)C(=Cc1ccc(Cl)cc1Cl)C(C)=O` showed a logP of 3.67.

For the molecule `NC(=S)NN=Cc1cccc(O)c1`, the logP was 1.61.

Take `CCOC(=O)C(=Cc1cccc(Cl)c1)C(C)=O`: the logP is 2.97.

With `CCOP(=O)(OCC)Oc1ccc(SC)cc1`, the log partition coefficient (logP) was 2.79.

For `O=C1C(NCCO)=C(N2CC2)C(=O)C(NCCO)=C1N1CC1`, the logP is -1.48.

`O=C(Oc1ccccc1)Oc1ccccc1` gave a log partition coefficient (logP) of 3.28.

Molecule `CN(C(=O)c1ccccc1)c1ccccc1` yielded a logP of 2.36.

Turning to `CCOP(=O)(OCC)Oc1ccc(SC)cc1C`, the logP was determined as 3.21.

Turning to `NC(=O)Oc1ccccc1`, the logP worked out at 1.08.

In the case of `CCOC(=O)C(=Cc1ccccc1Cl)C(=O)OCC`, the logP came out at 3.15.

With `CCOC(=O)C(=O)c1cccs1`, the logP amounted to 1.77.

Take `CCCCCC(C)O` (stereo not drawn): the logP came out at 2.31.

The molecule `CN(C)CCCN1c2ccccc2Sc2ccc(S(C)(=O)=O)cc21` came in with a logP of 3.5.

With `CCC(C)NC(=O)C=C(Br)c1ccc(Cl)cc1` (stereo not drawn), the logP turned out to be 3.9.

With `NS(=O)(=O)NCCc1ccccc1`, the logP stood at 0.81.

Regarding `NC(=O)Nc1cnc2ccccc2n1`, the logP turned out to be 1.3.

`CC(=O)NO`: the logP is -1.59.

On to `Nc1c(S(=O)(=O)O)ccc2ccccc12`, for which the lipophilicity (logP) is -0.97.

`Cc1ccccc1Cl` displayed a logP of 3.42.

Molecule `CC1=Nc2ccc(I)cc2S(=O)(=O)N1` yielded a log partition coefficient (logP) of 1.61.

Molecule `Cc1ccccn1` had a logP of 1.11.

Take `[O-][n+]1ccccc1SCc1ccccc1`: the logP came to 1.24.

For `CC(=O)Nc1ccc(S(=O)(=O)F)cc1`, the logP amounted to 2.17.

`C=CCNC(=O)NCC=C` returned a logP of 0.64.

The molecule `O=[N+]([O-])c1ccc(/C=C/c2cccc(CO)n2)o1` returned a logP of 1.37.

`COc1cc(Cl)cc(Cl)c1`: the logP turned out to be 3.74.

Turning to `C=CC=O`, the logP was -0.01.

In the case of `CCOc1ccccc1OC`, the logP turned out to be 1.73.

In the case of `Cn1nnc2ccccc2c1=O`, the logP stood at 0.84.

Molecule `CN(C)CCc1ccsc1` yielded a logP of 1.94.

The molecule `O=C1c2ccccc2-c2ccccc21` displayed a logP of 3.58.

In turn, `CC(=O)Nc1cc2c(cc1Cl)S(=O)(=O)NC(C)=N2` displayed a lipophilicity (logP) of 0.53.

The molecule `CC1(C)O[C@@H]2C[C@H]3[C@@H]4CCC5=CC(=O)C=C[C@]5(C)[C@@]4(F)[C@@H](O)C[C@]3(C)[C@]2(C(=O)CO)O1` showed a logP of 2.53.

`COc1ccc2[nH]c(CC(O)c3nc4cc(OC)ccc4[nH]3)nc2c1` (stereo not drawn) registered a logP of 0.76.

With `FC(Cl)Cl`, the logP was 1.55.

`CC(=O)N(c1ccccc1)S(C)(=O)=O` returned a logP of 0.29.

`CCOC(=O)C(=Cc1cccc(OCC)c1)C(C)=O` yielded a lipophilicity (logP) of 2.71.

For `CC(=O)NC1CCSC1=O` (stereo not drawn), the logP was -0.35.

In the case of `O=c1nccc[nH]1`, the logP is -1.62.

In turn, `Cl/C=C/Cl` returned a logP of 2.09.

In turn, `C/C=C/C` showed a logP of 2.31.

In the case of `O=C1C=CC(=O)N1`, the logP is -0.29.

Consider `CCOC(=O)c1cccs1`, for which the logP worked out at 2.33.

Molecule `O=[N+]([O-])C=Cc1ccsc1` returned a logP of 1.94.

On to `CN(C)CCC1CN(C)C(=S)c2cccnc2O1` (stereo not drawn), for which the lipophilicity (logP) worked out at 1.08.

`O=c1[nH]cc(C(F)(F)F)c(=O)[nH]1` returned a log partition coefficient (logP) of 0.04.

With `COC(=O)CNC(=O)c1ccccc1`, the logP stood at 0.82.

The data set is the same for the next values; noted with them: pH 1.0.
As to `O=C(O)CNC(=O)c1ccccc1`, the logD was 0.31.

Molecule `NS(=O)(=O)c1ccc(C(=O)O)cc1` came in with a pH-dependent lipophilicity (logD) of 0.5.

The data set is the same for the next values; noted with them: pH 5.0.
Consider `O=S(Cc1ccccn1)c1nc2ccccc2[nH]1` (stereo not drawn), for which the logD is 1.33.

In turn, `CC(C)c1ccc(O)c(=O)cc1` displayed a logD of 1.89.

The same data set, now with this note: pH 5.4.
Molecule `O=C(c1ccccc1)c1cccc(NS(=O)(=O)C(F)F)c1` displayed a logD of 2.86.

The same data set, now with this note: pH 6.2.
Molecule `Nc1nc(CON=CC(=O)NC2C(=O)N3C(C(=O)OC4OC(=O)c5ccccc54)=CCSC23)cs1` (stereo not drawn) had a logD of 1.28.

The data set is the same for the next values; noted with them: pH 7.0.
For the molecule `COc1ccc(C=O)cc1`, the logD is 1.61.

The molecule `CCOC(=O)c1cccc([N+](=O)[O-])c1` yielded a logD of 2.35.

In turn, `O=CNc1ccc(F)cc1` had a logD of 1.27.

Molecule `Brc1ccc2ncccc2c1` showed a logD of 2.83.

In turn, `CN(C)c1ccc(S(N)(=O)=O)cc1` yielded a pH-dependent lipophilicity (logD) of 0.76.

The data set is the same for the next values; noted with them: pH 7.4.
The molecule `CC(=O)NN=CCCc1ccccc1` gave a logD of 1.8.

`Cc1c(N(C)C)c(=O)[nH]c(=O)n1-c1ccccc1` came in with a logD of 1.4.

`CN(C)/N=N/c1ccccc1C(N)=O` yielded a log distribution coefficient (logD) of 1.73.

`Cc1c(N(C)C)c(=O)n(CCO)c(=O)n1-c1ccccc1`: the logD stood at 1.12.

With `COc1cc2c(c(OC)c1OC)-c1ccc(SC)c(=O)cc1[C@@H](N[C@@H]1O[C@H](CO)[C@@H](O)[C@H](O)[C@H]1O)CC2`, the logD stood at 1.25.

As for `CO[C@H]1O[C@H](CO)[C@@H](O)[C@H](NC(=O)N(C)N=O)[C@H]1O`, the logD was -1.45.

`Nc1nc(S)c2ncn(C3CC(O)C(CO)O3)c2n1` (stereo not drawn): the log distribution coefficient (logD) was -0.56.

As for `COC1OCC(O)C(NC(=O)N(C)N=O)C1O` (stereo not drawn), the logD was -1.08.

The same data set, now with this note: pH 12.0.
As to `CCCCCC1CN[C@H](C(=O)NC(C(C)Cl)[C@H]2O[C@H](SC)[C@H](O)[C@@H](O)[C@H]2O)C1` (stereo in doubt), the logD amounted to 2.74.

Regarding `CCC[C@@H]1C[C@@H](C(=O)N[C@@H]([C@H]2O[C@H](SC)[C@H](O)[C@@H](O)[C@H]2O)[C@@H](C)O)N(CC)C1`, the logD amounted to 1.02.

The molecule `CCCC1CC(C(=O)NC(C(C)Cl)C2OC(SC)C(O)C(O)C2O)N(CC)C1` (stereo not drawn) displayed a logD of 2.51.

The same data set, now with this note: pH 12.3.
In the case of `CCCC1CNC(C(=O)NC(C(C)Br)C2OC(SC)C(O)C(O)C2O)C1` (stereo not drawn), the logD amounted to 1.77.

The values are drawn from the SangsterLogP compilation.
